Two molecules from ChEMBL document CHEMBL4665729, “The SARS-CoV-2 main protease as drug target” (Bioorg Med Chem Lett, 2020) can be followed below.

The test system of experiment [1] is Severe acute respiratory syndrome coronavirus 2. The experiment is described as follows: Inhibition of SARS-CoV-2 main protease expressed in expressed in BL21(DE3) Escherichia Coli […] by measuring ratio of K2/Ki by FRET assay.
A short description of experiment [2]: Inhibition of SARS-CoV-2 main protease expressed in expressed in BL21(DE3) Escherichia Coli […] by FRET assay. Set-up: species or system Severe acute respiratory syndrome coronavirus 2.

As to `CC(C)C[C@H](NC(=O)OCc1ccccc1)C(=O)N[C@@H](CC1CCNC1=O)C(O)S(=O)(=O)O` (stereo partly drawn), the Ratio in experiment [1] was 40800 M⁻¹ s⁻¹. In general, EC50 refers to the concentration giving half of the maximal effect. A word on the Ki: it is a measure of affinity in units of concentration, obtained from inhibition or displacement. Turning to `CC(C)(C)NC(=O)N[C@H](C(=O)N1C[C@H]2[C@@H]([C@H]1C(=O)NC(CC1CCC1)C(=O)C(N)=O)C2(C)C)C(C)(C)C` (stereo partly drawn) [BOCEPREVIR], in experiment [2], the EC50 was determined as 1310 nM and the Ki is 1180 nM.
